{"source": "patent US20140212478A1", "about": "“METHOD FOR PREVENTING AND/OR TREATING PERIODONTAL DISEASE” (priority 2008, published 2014)", "tested_on": "dental root-periodontal tissue of excised first molar (lower jaw)", "assay": "Effect on dental root-periodontal tissue formation: honokiol-impregnated agarose bead embedded into dental pulp of excised mouse first molar, graft culture under kidney capsule of host mice", "assay_type": "in vivo, C57BL/6 mice", "text": "Dulbecco' phosphate buffered saline (hereinbelow, it is some times referred to as “D-PBS”) was purchased from Dainippon Pharmaceuticals Inc. Affi-Gel agarose beads (Affigel heparin Cat. No.: 15306173) were purchased from Bio-Rad Laboratories, Inc. Five days age of C57BL/6 mice were purchased from Sankyo Labo Service Corporation. As host mice, 10 to 15 weeks age of C57BL/6 mice (female) were purchased from Sankyo Labo Service Corporation, and used two per group. Since it was know that a kidney and an anterior chamber of eye hardly have immune response among organs in adult mice, it was not necessary to especially use nude mice in graft culture.\nHonokiol-impregnated agarose beads were prepared as follows. Honokiol was diluted to the concentration of 10 μM by using D-PBS. The agarose beads were washed with D-PBS.\nAfter washing, four agarose beads were placed in the 1.5 mL tube and 100 μL of the honokiol solution was added into it. Then, the tube was incubated at room temperature for 45 minutes to impregnated honokiol into the agarose beads. As mentioned above, absorptive beads including heparin honokiol impregnation (hereinbelow, it is sometimes referred to as “honokiol-impregnated agarose beads”) were prepared.\nAlternatively, another four agarose beads were placed in the 1.5 mL tube and 100 μL of D-PBS was added into it to prepare D-PBS-impregnated agarose beads were prepared, and they were used as negative control.\nFive days age of […] mice, where their dental root-periodontal tissue was just before formed, were anesthetized and sacrificed by decapitation. After excised lower jaw of them, the first molars in the lower jaw were excised with dental follicles. One of the honokiol-impregnated agarose beads prepared in the (5-1) was embedded into the dental pulp of the excised teeth, the first molar in the lower jaw.\nAs the negative control, one of the D-PBS-impregnated agarose beads prepared was embedded into the dental pulp of another excised teeth, the first molar in the lower jaw.\nThe excised teeth under which the honokiol-impregnated agarose bead was embedded, and that under which the D-PBS impregnated agarose bead was embedded, were respectively grafted under capsule of kidney of the host mice. The host mice were bred under the condition of 12 hours lighting, at room temperature, 25° C., free taking feed and water for three weeks.\nAfter three weeks from grafting of the excised tooth, the host mice were sacrificed by dislocation of cervical vertebrae to excise the kidney to recover the cultured excised tooth (grafted tooth).\nFormation of dental root-periodontal tissue (extension), coat of the dental root, and bone of the grafted tooth, which was recovered, were observed under stereoscopic microscope, and then subjected to tomography by using micro CT. […]", "note": "“Also recorded” adds a separate entry of the source.", "data": [{"substance": "honokiol", "values": [{"measurement": "extension of dental root (dental root-periodontal tissue formation)", "setting": "agarose bead impregnated with 10 μM honokiol in D-PBS, embedded into dental pulp, three weeks graft culture under kidney capsule, stereoscopic microscope and micro CT, compared to D-PBS negative control", "result": "prominent extension of dental root; also recorded: excellent promotion effect for dental root-periodontal tissue formation (extension)"}, {"measurement": "bone formation around the newly formed dental root", "setting": "agarose bead impregnated with 10 μM honokiol, embedded into dental pulp, three weeks graft culture under kidney capsule, all graft samples with dental root extension", "result": "bone formation around the newly formed dental root were also observed"}, {"measurement": "periodontal ligament-like structure between the dental root and the bone formed", "setting": "agarose bead impregnated with 10 μM honokiol, embedded into dental pulp, three weeks graft culture, soft X-ray / micro CT section", "result": "structure similar to periodontal ligamentous band was observed"}, {"measurement": "promotion effect for surrounding tissue (periodontal ligament and alveolar bone), overall conclusion", "setting": "pharmaceutical preparation comprising honokiol as the active ingredient, conclusion from graft culture results", "result": "promotion effect for surrounding tissue such as the periodontal ligament and alveolar bone"}]}]}
